Experimental data: ChEMBL document CHEMBL5316297, “Mechanistic Insight of Synthesized 1,4-Dihydropyridines as an Antidiabetic Sword against Reactive Oxygen Species” (J Med Chem, 2023)
Activity calls are given as the source filed them. The rule behind the calls is not given here.

How the values were obtained:
[1] = tested on: INS1; assay: Induction of apoptosis in rat INS1 cells assessed as total apoptotic cells at 1 uM incubated for 36 hrs by Annexin V-FITC/ propidium iodide staining based flow cytometry analysis (reference value: 0.53%); type: functional
[2] = tested on: Mus musculus; assay: Antidiabetic activity against high fat diet-STZ-induced diabetic Swiss albino mouse model assessed as reduction in blood glucose level at 0.2 mmol/Kg/day, po administered for 14 days; type: functional; conditions: time 14 day
[3] = tested on: Mus musculus; assay: Antidiabetic activity against high fat diet-STZ-induced diabetic Swiss albino mouse model assessed as reduction in blood glucose level at 0.2 mmol/Kg/day, po administered for 14 days relative to control; type: functional; design: scale not given: the % may be the effect or the level left; conditions: time 14 day
[4] = tested on: Mus musculus; assay: Antidiabetic activity against high fat diet-STZ-induced diabetic Swiss albino mouse model assessed as reduction in blood glucose level at 0.2 mmol/Kg/day, po administered for 14 days relative to glimepiride; type: functional; design: scale not given: the % may be the effect or the level left; conditions: time 14 day
[5] = tested on: Mus musculus; assay: Antidiabetic activity against high fat diet-STZ-induced diabetic Swiss albino mouse model assessed as insulin resistance by measuring serum TNFalpha level at 0.2 mmol/Kg/day, po administered for 14 days by ELISA method (reference value: 376.50+/-14.50 ng/ml); type: functional; conditions: time 14 day
[6] = tested on: Mus musculus; assay: Antidiabetic activity against high fat diet-STZ-induced diabetic Swiss albino mouse model assessed as insulin resistance by measuring serum IL6 level at 0.2 mmol/Kg/day, po administered for 14 days by ELISA method (reference value: 39.30+/-4.14 pg/ml); type: functional; conditions: time 14 day
[7] = tested on: Mus musculus; assay: Antioxidant activity against high fat diet-STZ-induced diabetic Swiss albino mouse model assessed as serum SOD level at 0.2 mmol/Kg/day, po administered for 14 days (reference value: 273.01+/- 6.23 U/ml); type: functional; conditions: time 14 day
[8] = tested on: INS1; assay: Induction of apoptosis in rat INS1 cells assessed as late apoptotic cells at 1 uM incubated for 36 hrs by Annexin V-FITC/ propidium iodide staining based flow cytometry analysis (reference value: 0.19%); type: functional
[9] = tested on: INS1; assay: Induction of apoptosis in rat INS1 cells assessed as necrotic cells at 1 uM incubated for 36 hrs by Annexin V-FITC/ propidium iodide staining based flow cytometry analysis (reference value: 1.15%); type: functional
[10] = target: T1, Alpha amylase (Homo sapiens, UniProt P0DUB6); assay: Inhibition of alpha amylase (unknown origin) measured after 20 to 25 mins
T1 sequence (P0DUB6 whole entry): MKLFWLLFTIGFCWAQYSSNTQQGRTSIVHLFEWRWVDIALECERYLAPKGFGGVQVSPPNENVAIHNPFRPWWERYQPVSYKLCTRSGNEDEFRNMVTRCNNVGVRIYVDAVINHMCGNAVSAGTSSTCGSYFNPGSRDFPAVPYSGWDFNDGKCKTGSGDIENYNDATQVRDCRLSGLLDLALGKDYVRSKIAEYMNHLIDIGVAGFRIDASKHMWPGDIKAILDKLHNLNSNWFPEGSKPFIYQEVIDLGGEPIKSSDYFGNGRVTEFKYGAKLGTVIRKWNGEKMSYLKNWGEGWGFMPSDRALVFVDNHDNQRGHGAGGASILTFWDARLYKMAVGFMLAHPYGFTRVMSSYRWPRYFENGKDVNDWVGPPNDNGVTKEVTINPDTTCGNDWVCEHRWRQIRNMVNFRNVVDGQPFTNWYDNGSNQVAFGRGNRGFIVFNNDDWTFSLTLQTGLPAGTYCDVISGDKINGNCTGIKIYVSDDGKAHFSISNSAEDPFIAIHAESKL

[11] = target: T2, Dipeptidyl peptidase 4 (Homo sapiens, UniProt P27487); assay: Inhibition of DPP-4 (unknown origin) incubated for 30 mins in presence of substrate by fluorescence based analysis
Target sequence in this assay (P27487 whole entry): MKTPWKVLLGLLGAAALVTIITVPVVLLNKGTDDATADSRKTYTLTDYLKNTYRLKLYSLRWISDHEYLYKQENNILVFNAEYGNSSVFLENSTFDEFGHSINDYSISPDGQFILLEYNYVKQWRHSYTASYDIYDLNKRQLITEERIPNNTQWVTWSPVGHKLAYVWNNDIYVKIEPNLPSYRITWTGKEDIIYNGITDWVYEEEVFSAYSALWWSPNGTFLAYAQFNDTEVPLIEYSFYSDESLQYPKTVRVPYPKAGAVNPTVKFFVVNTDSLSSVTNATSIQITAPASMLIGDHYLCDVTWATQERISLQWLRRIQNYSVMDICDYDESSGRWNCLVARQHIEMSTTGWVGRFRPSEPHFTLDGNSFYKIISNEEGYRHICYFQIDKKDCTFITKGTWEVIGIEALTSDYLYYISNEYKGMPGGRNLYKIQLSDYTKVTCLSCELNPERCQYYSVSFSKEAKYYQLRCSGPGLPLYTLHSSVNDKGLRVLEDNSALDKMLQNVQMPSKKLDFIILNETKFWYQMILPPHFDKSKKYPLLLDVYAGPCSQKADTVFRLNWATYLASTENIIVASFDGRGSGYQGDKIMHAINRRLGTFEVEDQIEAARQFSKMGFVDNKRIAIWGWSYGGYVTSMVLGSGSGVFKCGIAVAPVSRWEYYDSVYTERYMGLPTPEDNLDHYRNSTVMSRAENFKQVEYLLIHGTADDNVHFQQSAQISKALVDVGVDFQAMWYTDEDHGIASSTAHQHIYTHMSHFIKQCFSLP

[12] = target: T3, Sodium/glucose cotransporter 2 (Homo sapiens, UniProt P31639); assay: Inhibition of human SGLT2 by liquid scintillation counter analysis
T3 sequence (P31639 whole entry): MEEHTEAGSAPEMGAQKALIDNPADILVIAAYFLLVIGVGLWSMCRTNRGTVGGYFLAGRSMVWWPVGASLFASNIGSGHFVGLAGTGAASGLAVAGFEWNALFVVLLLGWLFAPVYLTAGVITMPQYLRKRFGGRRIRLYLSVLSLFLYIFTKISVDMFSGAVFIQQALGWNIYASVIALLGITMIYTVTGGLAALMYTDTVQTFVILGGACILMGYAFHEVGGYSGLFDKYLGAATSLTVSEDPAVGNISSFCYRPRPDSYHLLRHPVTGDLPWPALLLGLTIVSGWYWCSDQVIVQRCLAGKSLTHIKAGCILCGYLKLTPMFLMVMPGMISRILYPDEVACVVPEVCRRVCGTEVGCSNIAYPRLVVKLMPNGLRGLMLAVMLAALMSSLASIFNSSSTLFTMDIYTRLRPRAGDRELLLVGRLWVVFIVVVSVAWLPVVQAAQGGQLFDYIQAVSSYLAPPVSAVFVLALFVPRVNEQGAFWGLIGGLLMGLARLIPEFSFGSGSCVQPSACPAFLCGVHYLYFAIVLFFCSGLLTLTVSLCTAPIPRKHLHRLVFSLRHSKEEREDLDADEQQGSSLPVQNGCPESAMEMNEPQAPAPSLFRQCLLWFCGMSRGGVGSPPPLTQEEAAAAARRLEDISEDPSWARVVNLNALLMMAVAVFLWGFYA

[13] = target: T2, Dipeptidyl peptidase 4; assay: Inhibition of DPP-4 (unknown origin) incubated for 30 mins in presence of substrate by fluorescence based analysis relative to sitagliptin
Target sequence in this assay (P27487 whole entry, looked up): as the sequence (P27487 whole entry) above

[14] = Half life in Swiss albino mouse plasma at 0.2 mmol/Kg, po measured after 24 hrs by HPLC analysis; type: ADME, organism-based
[15] = AUC in Swiss albino mouse plasma at 0.2 mmol/Kg, po measured after 24 hrs by HPLC analysis; type: ADME, organism-based; design: dose 0.2 mmol/Kg, time 24 hrs, route po; conditions: in vivo
[16] = Cytotoxicity against human MCF-10F cells assessed as cell growth inhibition at 10 uM relative to control; type: toxicity, cell-based; conditions: read-out: GI
[17] = Cytotoxicity against human MRC5 cells assessed as cell growth inhibition; type: toxicity, cell-based
[18] = Cytotoxicity against human MRC5 cells assessed as cell growth inhibition at 10 uM relative to control; type: toxicity, cell-based; conditions: read-out: GI
[19] = Cytotoxicity against human BJ cells assessed as cell growth inhibition; type: toxicity, cell-based
[20] = Cytotoxicity against human ECT1/E6E7 cells assessed as cell growth inhibition; type: toxicity, cell-based
[21] = Cytotoxicity against human ECT1/E6E7 cells assessed as cell growth inhibition at 10 uM relative to control; type: toxicity, cell-based; conditions: read-out: GI
[22] = Cytotoxicity against HEK293 cells assessed as cell growth inhibition; type: toxicity, cell-based; conditions: human
[23] = tested on: INS1; assay: Induction of rat INS1 cells regeneration incubated for 24 hrs by CCK8 assay; type: functional, cell-based
[24] = tested on: Mus musculus; assay: Antidiabetic activity against high fat diet-STZ-induced diabetic Swiss albino mouse model assessed as increase in appearance of insulin immunopositive areas in pancreatic sections at 0.2 mmol/kg/day, po administered for 14 days by […] based analysis; type: functional, organism-based; conditions: time 14.0 day
[25] = tested on: Mus musculus; assay: Antidiabetic activity against high fat diet-STZ-induced diabetic Swiss albino mouse model assessed as induction of beta cell regeneration in pancreas at 0.2 mmol/kg/day, po administered for 14 days by haematoxylin and eosin staining based analysis; type: functional, organism-based; conditions: Pancreatic beta cell, time 14.0 day
[26] = Acute toxicity in Swiss albino mouse assessed as effect on motor alterations up to 2000 mg/kg, po administered for 14 days; type: organism-based; conditions: in vivo, 336 h, time 14 day

SMILES: CCOC(=O)C1=C(C)NC(C)=C(C(=O)OCC)C1c1cccc2c1OCO2
- Activity [1]: 0.42%
- Activity [2]: 80.6 mg/dL
- Activity [3]: 72.97%
- Activity [4]: 218%
- Activity [5]: 415.5 ng/mL
- Activity [6]: 96.07 pg/mL
- Activity [7]: 236.14 U/ml
- Activity [8]: 0.15%
- Activity [9]: 1.46%
- IC50 [10]: 17.32 µM
- IC50 [11]: 280 µM
- IC50 [12]: 411 µM
- inhibition [13]: < 1%
- half-life [14]: 1.9 h
- AUC [15]: 36.7 ng·h/mL
- inhibition at 10 µM [16]: 28.7%
- GI50 [17]: 61.8 µM
- inhibition at 10 µM [18]: 18.6%
- GI50 [19]: 15.2 µM
- GI50 [20]: 3.74 µM
- inhibition at 10 µM [21]: 18.9%
- GI50 [22]: 19.7 µM
- Activity [23]: Dose-Dependent Effect
- Activity [24]: Active
- Activity [25]: Active
- Activity [26]: Non-Toxic
